The results in this text go back to US12570643B2, “3-aryloxy-3-five-membered heteroaryl propylamine compound, and crystal form and use thereof” (Shanghai Leado Pharmatech Co. Ltd., priority 2019, dated 2026).

In general, pIC50 refers to the IC50 on a negative log10 scale, so that one unit is a factor of ten. The IC50 is the concentration that inhibits the measured activity by half. Read a low IC50 as higher potency. As usually defined, the ED50 is the midpoint of the dose-response relation.

The structures appear in SMILES notation. pIC50: −log10 of the molar value.

In one series the test system is HepG2 cells. The series can be described thus: Hepatocyte toxicity (CCK-8 cytotoxicity test). Format: cell-based. Particulars: Homo sapiens, 72 hours, read-out: hepatotoxicity (IC50). The protocol: (§1) HepG-2 and SH-SY5Y cells were prepared and placed in 10 cm dish and incubated at 37° C., 5% CO2 in a cell incubator; the cells were digested with trypsinize, resuspended and then counted. Based on a system of 100 μl/well, 8000 cells were transferred to a 96-well plate. The cells were incubated in a 37° C., 5% CO2 cell incubator for 24 hours; a gradient concentration system of compound I-1 (prepared in Example 2) was prepared, 2 times diluted, the system was 100 μl/well. The supernatant in the 96-well plate cell culture system on the first day was removed, and a fresh prepared drug concentration system was added to the corresponding culture plate wells culturing cells (set up duplicate wells). […] After completion of the culture, the supernatant was removed from the cell culture system of the 96-well plate, 100 μl of detection solution (medium containing 10% CCK-8) was add to each well, and incubated in a cell incubator at 37° C. and 5% CO2 for 1 hour, then taken it out and measured the absorbance at 450 nm with a microplate reader. Data were processed, cytotoxicity was calculated, and IC50 was calculated by GraphPad Prism. […]
(§2) A (dosing): absorbance of the well having cells, CCK-8 solution and drug solution
(§3) A (blank): absorbance of the well having medium and CCK-8 solution, without cells.
(§4) A (0 dosing): absorbance of the well having cells and CCK-8 solution, without drug solution […]

A short description of series [1]: Neurocytotoxicity (CCK-8 cytotoxicity test). Format: cell-based. The note with it: human, SH-SY5Y cells. The protocol:
as §1, §2, §3, §4
In general terms: Formazan colour is commonly taken as a measure of viable cells.

In series [2] the test system is formalin pain model in mice. As to the kind of experiment: Formalin pain model in mice. Format: in vivo, C57BL/6 mice. An excerpt:
150 C57BL/6 mice (male, 9 weeks) were randomly divided into 15 groups with 10 mice for each group, and were used for the analgesic activity test of 3 compounds in the formalin pain model in mice: the compound I-1 group (compound I-1 prepared in Example 2, its hydrochloride was used in the experiment), the S-duloxetine group (its hydrochloride was used in the experiment) and the compound C1 group (compound C1 prepared in Comparative Example 1, its hydrochloride was used in the experiment), respectively. Before the start of the experiment, the mice were allowed to adapt to the experimental environment for 72 hours, during which there was no need to fast for food or water. The tested drugs were administrated by intraperitoneal injection, and the doses were as follows: • The compound I-1 group: blank Vehicle (blank normal saline control), 0.1 mg/kg, 0.5 mg/kg, 1 mg/kg, 5 mg/kg and 10 mg/kg; • The S-duloxetine group: blank Vehicle (blank normal saline control), 1 mg/kg, 5 mg/kg, 10 mg/kg and 20 mg/kg; • The Compound C1 group: blank Vehicle (blank normal saline control), 0.1 mg/kg, 0.5 mg/kg, 1 mg/kg, 5 mg/kg and 10 mg/kg.
After the administration, the mice were placed in a transparent, ventilated plexiglass cylinder, and 1 hour later, 20 μl of 4% formalin solution was injected into the left hind foot plantar of each group of mice with a micro-injector, and foot pain response in mice were recorded in real time with a miniature camera. The length of time of licking the left foot was used as an indicator of pain response, the licking time were observed and recorded during two periods of 0-10 min (phase I) and 10-60 min (phase II) respectively, for statistical analysis, and the half effective dose (ED50) of the 3 compounds were calculated: ED50 refers to the drug dose that reduces the licking time by half compared with the blank control group. The smaller the ED50 value is, the lower the effective analgesic dose of the compound is and the better its analgesic effect is.

Series [3] has as its system acetic acid writhing pain model in mice. The series can be described thus: Acetic acid writhing pain model in mice. It is filed as in vivo, ICR mice. How it is done: ICR mice, male, 22-25 g, were fasted for food 2 h before administration, but can have water. All ICR mice were weighed and randomly grouped with the number of animals>10 per group. […] The mice were administered via intragastric administration according to the weight of mice. 1.5% acetic acid solution (0.1 ml/10 g) was intraperitoneally injected at 1 hour after administration, and the number of times of visceral pain in each group within 30 minutes was observed, the mice were counted once when the abdomen was concave, the trunk and hind legs were extended and the hips were elevated, and the number of times of these phenomena occurred within 30 min was finally counted.

On to `CNCC[C@@H](Oc1cccc2ccoc12)c1cccs1` [Compound I-1, (R)-3-(benzofuran-7-yloxy)-N-methyl-3-(thiophen-2-yl)propan-1-amine], for which the pIC50 with HepG2 cells is approximately 3.94. In addition, the IC50 at 72 h in series [1] was approximately 101 µM. For the same compound, the ED50 in series [2] (Mus musculus, ip, intraperitoneal, phase II (10-60 min), dose that halves licking time vs blank control, read-out: analgesic potency ED50 in phase II pain) was 0.26 mg/kg; in series [3] (Mus musculus, po, intragastric, mice, read-out: half effective dose (ED50) in acetic acid writhing model) it was less than 5 mg/kg. The “ED50 times stronger than that of C1 compound” value in series [2] (phase II pain, formalin model in mice) came out at 8.5 times. The “number of visceral pains lower than normal saline control group” value in series [3] (5 mg/kg intragastric) is 50%.
